Laboratory results from patent US4003945A, “Novel cyclopropanecarboxylates” (Sumitomo Chemical Company, Limited, priority 1973, dated 1977).
Values after ≈ are worked out from the molar mass of the structure shown.

Tests used:
[1] = system: larvae of tobacco cut worm, diamondback moth and common cabbage worms; assay: Fumigation of Chinese cabbages in vinyl house with heated wettable powder (Example XIV); assay type: in vivo; settings: 10 grams of 40% wettable powder per 30 m^2 compartment
Description: In the vinyl house, the Chinese cabbages were cultivated and the leaves were parasitized with the larvae of tobacco cut worm, diamondback moth and common cabbage worms.
The vinyl house (its height was 2 m) was divided into compartments of 30 m^2 in area and 10 grams of the present compound (1, 4) in the form of 40% wettable powder was put into the plate heated by fire.

housefly adults = assay: Oil spray, Campbel's turn table, lethal concentration (Test Example 2); assay type: in vivo; settings: Musca domestica, 24 h
Protocol: A group of about 100 housefly adults was exposed to descending spray for 10 minutes, thereafter was transferred to an observation cage, was fed, and was allowed to stand at room temperature.
After a day, the dead and alive were counted to calculate the lethal ratio.

[2] = system: 3rd or 4th instar larvae of tobacco cut worm; assay: Diluted emulsion sprayed by settling tower on larvae (Example X); assay type: in vivo; settings: emulsion diluted to 50 times, 1 ml
Protocol: Ten of the 3rd or 4th instar larvae of tobacco cut worm were put into a petri dish of 17 cm in diameter.
One ml of the present compound (4, 11, 28, 92, 94, 95, 109, 111) in form of an emulsion obtained in Example X, which were diluted to 50 times with water, were sprayed by means of a settling tower. The said larvae were removed into another petri dish with the leaves of the chinese cabbage leaves. Observation was made after 48 hrs. As a result, more than 90% of the larvae were dead in each case.

adult leafhoppers = assay: Granule applied to rice plants in Wagner pot (Example XIII); assay type: in vivo, leafhopper; settings: granule of Example W, 10 kg/10 ares
Protocol: Rice plants at the tillering stage were grown in Wagner pots, and the depth of water was kept at 5 cm.
The present compound (4) obtained in Example W was put into the Wagner pot with 10 kg/10 ares, and the said pot was covered with a wire cage into which 20 adult leafhoppers were released.

Row | SMILES | increasing of the damage [1] | LC50 (housefly adults) [µg/mL] | larvae dead after 48 hrs [2] | leafhoppers dead after 24 hrs (adult leafhoppers)
1 | C#CC(C=CC)OC(=O)C1C(C=C(C)C)C1(C)C (stereo not drawn) [Compound 1, 1-Ethynyl-2-butenyl chrysanthemate] | the increasing of the damage was not found | 5500 (≈ 22.3 mM) |  | 
2 | C#CC(OC(=O)C1C(C=C(C)C)C1(C)C)C(C)=CCC (stereo not drawn) [Compound 4, 1-Ethynyl-2-methyl-2-pentenyl chrysanthemate] | the increasing of the damage was not found | 1400 (≈ 5.1 mM) | more than 90% | more than 90%
